Assay results from the RepoRT retention time repository (doi:10.1016/j.chroma.2015.11.014).

Experiment: RP, Agilent ZORBAX Eclipse Plus C18, 150 × 2.1 mm, 3.5 µm, 40 °C, 0.3 mL/min, estimated dead time 1.1 min; A: water + 0.1% formic acid; B: acetonitrile + 0.1% formic acid; gradient (min/%B) 0/2 1/2 2/20 16.5/98 22/98
Conditions: stereoisomer not certain

Compound	LC retention time
CN(C)CC1CCCCC1(O)c1cccc(O)c1 (stereo not given)	5.39 min
COc1ccc(NC(C)=O)cc1	6.51 min
NC(=O)c1ccccc1	5.64 min
COc1nc(NC(C)C)nc(NC(C)C)n1	7.39 min
Cc1ccc(C(=O)c2cc(O)c(O)c([N+](=O)[O-])c2)cc1	11.1 min
Nc1nc2c(ncn2COCC(=O)O)c(=O)[nH]1	2.92 min
Cc1ccc2n[nH]nc2c1	7.02 min
CC(O)CCCCn1c(=O)c2c(ncn2C)n(C)c1=O (stereo not given)	6.42 min
c1ccc([P+](c2ccccc2)(c2ccccc2)c2ccccc2)cc1	8.63 min
c1ccc2[nH]c(-c3cscn3)nc2c1	5.2 min
O=C(Nc1ccccc1)Nc1ccccc1	10.8 min
CN(C)N=Nc1nc[nH]c1C(N)=O	4.47 min
CCCC1OC2CC3C4CCC5=CC(=O)C=CC5(C)C4C(O)CC3(C)C2(C(=O)CO)O1 (stereo not given)	11 min
CCC1(C2OC(C3OC(O)(CO)C(C)CC3C)CC2C)CCC(C2(C)CCC3(CC(O)C(C)C(C(C)C(OC)C(C)C(=O)O)O3)O2)O1 (stereo not given)	20.4 min
NC(=O)N1c2ccccc2C=Cc2ccc(O)cc21	7.92 min
CCCCCCCCCCC(C(=O)OCCCCCC)[N+](C)(C)Cc1ccccc1 (stereo not given)	13.6 min
CN(C)C1C(=O)C(C(N)=O)=C(O)C2(O)C(=O)C3=C(O)c4c(O)cccc4C(C)(O)C3CC12 (stereo not given)	5.46 min
CCOC(=O)C(CCc1ccccc1)NC(C)C(=O)N1C(C(=O)O)CC2CCCC21 (stereo not given)	7.85 min
CCCCCCCCCCCCCCCC[N+](C)(C)Cc1ccccc1	13.9 min
O=P(O)(O)c1ccccc1	3.09 min
CN(C)Cc1ccccc1	4.42 min
CCCC[N+](CCCC)(CCCC)CCCC	8.91 min
CCCCC(CC)COP(=O)(Oc1ccccc1)Oc1ccccc1 (stereo not given)	17 min
CC(=O)Nc1ccc(O)cc1	5.02 min

Compound	LC retention time
CN(C)c1nc2c(ncn2C2OC(CO)C(O)C2O)c(=O)[nH]1 (stereo not given)	4.57 min
c1ccc2sc(N3CCOCC3)nc2c1	9.36 min
O=S(=O)(O)c1nc2ccccc2s1	6.5 min
CCCCCCCCCCC(C(=O)c1ccc(OC)cc1)[N+](C)(C)C (stereo not given)	11.3 min
CCCCCCCCCCCCCC[N+](C)(C)CCCCCCCCCCCCCC	16.9 min
CCNc1nc(NC(C)C)nc(SC)n1	8.65 min
Cc1ncsc1CCO	4.25 min
CCCCCCCCN1CCCC1=O	12.6 min
COc1ccc2nc(S(=O)Cc3ncc(C)c(OC)c3C)[nH]c2c1 (stereo not given)	6.46 min
On1nnc2ccccc21	5.24 min
CCN(CC)C(=O)Nc1ccc(OCC(O)CNC(C)(C)C)c(C(C)=O)c1 (stereo not given)	6.53 min
Cc1cc2n[nH]nc2cc1C	8.01 min
O=C(O)c1ccc(O)cc1	5.62 min
Cc1ccc(C(=O)O)cc1	8.54 min
c1ncc2[nH]cnc2n1	2.57 min
C=CCC1=C(C)C(OC(=O)C2C(C=C(C)C)C2(C)C)CC1=O (stereo not given)	16.1 min
S=c1[nH]c2ccccc2s1	9.12 min
O=C(c1ccccc1)c1ccc(O)c(O)c1O	9.4 min
O=c1[nH]c(=O)c2ccccc2[nH]1	5.39 min
c1ccc([P+](c2ccccc2)(c2ccccc2)C2CC2)cc1	7.79 min
CCNc1nc(NC(C)(C)C)nc(SC)n1	9.67 min
OCCN(CCO)c1nc(N2CCCCC2)c2nc(N(CCO)CCO)nc(N3CCCCC3)c2n1	7.67 min
CCCCCCCCCCCCCCCC(=O)OCC(COP(=O)([O-])OCC[N+](C)(C)C)OC(=O)CCCC(=O)O (stereo not given)	15.2 min
CNCc1ccc(CSCCNC(=C[N+](=O)[O-])NC)o1	4.77 min

Compound	LC retention time
O=c1[nH]sc2ccccc12	6.23 min
O=C(CCc1ccc(O)cc1)c1c(O)cc(O)cc1O	8.77 min
Nc1cccc2[nH]c(-c3ccccc3)nc12	5.28 min
CC12CC=C3c4ccc(O)cc4CCC3C1CCC2(O)CC#N (stereo not given)	9.96 min
CC(C)(C)NCC(O)c1ccc(O)c(CO)c1 (stereo not given)	4.69 min
CC1(C)CC(=O)CC(C)(C)N1	2.82 min
CCCCCCCCCCCCCCCC[N+](C)(C)C	12.8 min
CC(C)=CC[P+](c1ccccc1)(c1ccccc1)c1ccccc1	9.02 min
CC1(C)CC(OC(=O)CCCCCCCCC(=O)OC2CC(C)(C)NC(C)(C)C2)CC(C)(C)N1	6.57 min
O=P(O)(c1ccccc1)c1ccccc1	7.24 min
Oc1cccc2n[nH]nc12	5.34 min
COc1cc(C(=O)O)cc(OC)c1O	5.7 min
CC(C)c1ccccc1OP(=O)(Oc1ccccc1)Oc1ccccc1C(C)C	17.4 min
O=c1[nH]c(=O)c2[nH]cnc2[nH]1	2.43 min
O=P(Cc1ccccc1)(c1ccccc1)c1ccccc1	10.8 min
O=C([O-])CCCC[P+](c1ccccc1)(c1ccccc1)c1ccccc1	7.21 min
CCC1OC(=O)CC(O)C(C)C(OC2OC(C)C(OC3CC(C)(O)C(O)C(C)O3)C(N(C)C)C2O)C(CC=O)CC(C)C(=O)C=CC(C)=CC1COC1OC(C)C(O)C(OC)C1OC (stereo not given)	8.18 min
CCN(CC)C(=O)C(C)Oc1cccc2ccccc12 (stereo not given)	12.6 min
c1ccc2sc(NC3CCCCC3)nc2c1	9.08 min
Nc1ccn(C2CSC(C(=O)O)O2)c(=O)n1 (stereo not given)	2.46 min
CC(=O)C1CCC2C3CCC4=CC(=O)CCC4(C)C3CCC12C (stereo not given)	13.8 min
CC(C)CC(C)Nc1ccc(Nc2ccccc2)cc1 (stereo not given)	9.19 min
CC(C)c1ccccc1OP(=O)(Oc1ccccc1)Oc1ccccc1	15.8 min
COc1ncnc(NS(=O)(=O)c2ccc(N)cc2)c1OC	7.08 min

Compound	LC retention time
O=c1[nH]cnc2[nH]ncc12	3.15 min
CCCCC(=O)N(Cc1ccc(-c2ccccc2-c2nn[nH]n2)cc1)C(C(=O)O)C(C)C (stereo not given)	11.4 min
O=P(c1ccccc1)(c1ccccc1)c1ccccc1	10.5 min
CC(=O)Nc1cc(N)cc(C(=O)O)c1	4.46 min
CCCCC[N+](CCCCC)(CCCCC)CCCCC	11.3 min
COc1ccc2cc(C(C)C(=O)O)ccc2c1 (stereo not given)	10.9 min
Cc1cc(=O)n(-c2ccccc2)n1C	6.26 min
O=C(c1ccccc1)c1ccc(O)cc1O	11 min
CCOC(=O)C[P+](c1ccccc1)(c1ccccc1)c1ccccc1	8 min
Nc1nc2c(ncn2COC(CO)CO)c(=O)[nH]1	2.23 min
COCCOCCOCCOCCOC	6.01 min
N=C(N)c1ccc(OCCCCCCOc2ccc(C(=N)N)cc2)cc1	5.92 min
O=c1[nH]c2c(c(=O)n1C1CCCCC1)CCC2	9.02 min
CCC(C)(C)C(=O)OC1CC(C)C=C2C=CC(C)C(CCC3CC(O)CC(=O)O3)C21 (stereo not given)	15.4 min
CCc1cccc(C)c1N(C(=O)C(=O)O)C(C)COC (stereo not given)	9.91 min
Cn1cnc([N+](=O)[O-])c1Sc1ncnc2nc[nH]c12	5.37 min
COC(=O)Nc1nc2ccc(Sc3ccccc3)cc2[nH]1	9.95 min
O=C1CC2(CCCCC2)CO1	9.65 min
O=c1c(-c2ccc(O)cc2)coc2cc(O)ccc12	7.74 min
O=C(NC1CCCCC1)NC1CCCCC1	10.8 min
Cn1cnc2c1c(=O)[nH]c(=O)n2C	5.24 min
CCNC(=O)c1cccc(C)c1	8.34 min
C[N+](C)(Cc1ccccc1)Cc1ccccc1	6.13 min
Cc1ccc(O)c(-n2nc3ccccc3n2)c1	15.2 min

Compound	LC retention time
CN(C)c1ccc(C(c2ccccc2)c2ccc(N(C)C)cc2)cc1	9.97 min
CCCOc1ccc2nc(NC(=O)OC)[nH]c2c1	6.66 min
CCNc1nc(NC(C)(C)C)nc(S(C)=O)n1 (stereo not given)	8.82 min
Cc1c(C(C)C)c(=O)n(-c2ccccc2)n1C	9.54 min
S=c1[nH]c2ccccc2o1	8.26 min
CCOC(=O)CC(SP(=S)(OC)OC)C(=O)OCC (stereo not given)	12.9 min
Cc1ccccc1NC(=O)Nc1ccccc1C	11.1 min
CNCCOC(c1ccccc1)c1ccccc1	7.56 min
O=c1c2ccccc2[nH]c2ccccc12	8.5 min
CCCCCCCCCCC(C(=O)OCC)[N+](C)(C)Cc1ccccc1 (stereo not given)	11.7 min
Nc1nc(=S)c2[nH]cnc2[nH]1	2.69 min
NC(=O)CN1CCCC1=O	2.62 min
CC1(C)SC2C(NC(=O)C(N)c3ccccc3)C(=O)N2C1C(=O)O (stereo not given)	5.37 min
CCN(CC)CC(=O)Nc1c(C)cccc1C	5.77 min
CC(C)(C)NCC(O)COc1cccc2c1CC(O)C(O)C2 (stereo not given)	5.13 min
Cc1cc(C2CC2)nc(Nc2ccccc2)n1	10.8 min
Cc1ncc([N+](=O)[O-])n1CCO	4.81 min
CC12C=CC(=O)C=C1CCC1C2C(O)CC2(C)C1CCC2(O)C(=O)CO (stereo not given)	8.43 min
CC(C)C(NC(=O)OC(C)(C)C)C(=O)O (stereo not given)	9 min
CC(=O)Nc1ccccc1	6.74 min
COc1cc(Cc2c(N)nc(N)[nH]c2=O)cc(OC)c1OC	5.43 min
CCCCCCCCCCCCOS(=O)(=O)O	14.9 min
Cc1ccnc2c1NC(=O)c1cccnc1N2C1CC1	7.3 min
CCCC[P+](c1ccccc1)(c1ccccc1)c1ccccc1	8.85 min
